Assay results reported in patent US20110003711A1 (CHROMOCELL CORPORATION, priority 2008, published 2011).
Structures can show the parent of a compound that is named as a salt. Where two headings read alike, the source gives them in different places.

Assays:
[1] = tested on: GABAA-meYFP-CHO cells (α1β3γ2s, α2β3γ2s, α3β3γ2s, α5β3γ2s); experiment: In-cell readout assay using halide-sensitive meYFP; format: cell-based, human; conditions: increasing concentrations of GABA ligand
Description: The response of GABAA (subunit combinations of α1β3γ2s (A1), α2β3γ2s (A2), α3β3γ2s (A3) and α5β3γ2s (A5)) expressing CHO cells of the invention to test compounds was evaluated using the following protocol for an in-cell readout assay.
Cells were plated 24 hours prior to assay at 10-25,000 cells per well in 384 well plates in growth media (Ham's F-12 media plus FBS and glutamine). […] The assay plates were then loaded on the FDSS (Hamamatsu Corporation). […] The plates were read for 90 seconds.

[2] = target: T1, GABAA receptor α2β3γ2s (α2) (Homo sapiens, UniProt P18507+P28472+P47869, A343T); experiment: Membrane potential assay, CHO cell line expressing GABAA α2β3γ2s; format: cell-based; conditions: membrane potential assay, CHO α2β3γ2s cell line
T1 construct: Human GABAA receptor alpha 2 subunit amino acid; Human GABAA receptor beta 3 variant 1 subunit amino acid; Human GABAA receptor gamma 2 variant 1 (short) subunit amino acid; expressed in transfected cells
T1 sequence (P47869 29-451 A343T): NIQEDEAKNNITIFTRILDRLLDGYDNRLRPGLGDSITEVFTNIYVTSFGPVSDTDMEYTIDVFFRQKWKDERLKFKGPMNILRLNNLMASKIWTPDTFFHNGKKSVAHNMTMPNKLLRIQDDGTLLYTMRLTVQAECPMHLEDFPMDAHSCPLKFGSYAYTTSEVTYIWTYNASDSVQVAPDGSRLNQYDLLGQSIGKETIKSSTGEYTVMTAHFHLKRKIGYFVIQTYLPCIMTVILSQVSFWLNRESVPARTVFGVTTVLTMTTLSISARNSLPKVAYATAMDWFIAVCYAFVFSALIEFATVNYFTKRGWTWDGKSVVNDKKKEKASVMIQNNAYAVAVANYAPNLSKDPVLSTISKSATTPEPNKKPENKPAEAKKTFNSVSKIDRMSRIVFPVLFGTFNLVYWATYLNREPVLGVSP
T1 sequence (P28472 26-473, stated change not applied): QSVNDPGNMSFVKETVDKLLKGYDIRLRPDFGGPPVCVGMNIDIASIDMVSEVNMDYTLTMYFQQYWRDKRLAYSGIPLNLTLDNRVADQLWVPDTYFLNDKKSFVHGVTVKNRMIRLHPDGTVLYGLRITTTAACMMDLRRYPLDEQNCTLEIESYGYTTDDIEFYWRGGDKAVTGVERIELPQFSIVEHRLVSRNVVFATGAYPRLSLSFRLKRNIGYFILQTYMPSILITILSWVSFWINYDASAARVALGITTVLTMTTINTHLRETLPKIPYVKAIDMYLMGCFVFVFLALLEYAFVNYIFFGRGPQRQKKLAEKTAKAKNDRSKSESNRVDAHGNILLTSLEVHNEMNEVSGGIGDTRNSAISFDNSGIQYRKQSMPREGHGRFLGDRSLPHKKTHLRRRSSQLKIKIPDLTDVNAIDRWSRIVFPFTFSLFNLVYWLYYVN
T1 sequence (P18507 40-467 isoform P18507-1, stated change not applied): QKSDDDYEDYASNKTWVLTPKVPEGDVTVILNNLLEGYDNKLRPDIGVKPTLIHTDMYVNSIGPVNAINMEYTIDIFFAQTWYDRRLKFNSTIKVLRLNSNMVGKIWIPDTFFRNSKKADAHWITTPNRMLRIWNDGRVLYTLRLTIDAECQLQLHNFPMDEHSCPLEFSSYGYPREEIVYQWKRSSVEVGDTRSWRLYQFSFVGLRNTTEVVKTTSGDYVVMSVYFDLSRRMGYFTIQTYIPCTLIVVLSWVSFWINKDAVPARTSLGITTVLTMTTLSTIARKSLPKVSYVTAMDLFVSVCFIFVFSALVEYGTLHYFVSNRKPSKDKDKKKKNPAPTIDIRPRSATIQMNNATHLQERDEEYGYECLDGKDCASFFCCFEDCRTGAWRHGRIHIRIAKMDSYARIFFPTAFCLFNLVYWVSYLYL
Description: (§1) As will be appreciated by those of skill in the art, any reagent that is suitable for use with a chosen host cell may be used to introduce a nucleic acid, e.g. plasmid, oligonucleotide, labeled oligonucleotide, into a host cell with proper optimization. Examples of reagents that may be used to introduce nucleic acids into host cells include but are not limited to Lipofectamine, Lipofectamine 2000, Oligofectamine, TFX reagents, Fugene 6, DOTAP/DOPE, Metafectine, or Fecturin.
(§2) Cells were plated 24 hours prior to assay at 10-25,000 cells per well in 384 well plates in growth media (Ham's F-12 media plus FBS and glutamine). […] Incubation was for 1 hour, followed by plate loading onto the high throughput fluorescent plate reader (Hamamastu FDSS). […] The plates were read for 90 seconds.
(§3) Interaction of cell lines with test compounds was evaluated by measuring the membrane potential of GABAA, in response to test compounds using the following protocol.

[3] = target: T2, GABAA receptor α5β3γ2s (α5) (Homo sapiens, UniProt P18507+P28472+P31644); experiment: Membrane potential assay, CHO cell line expressing GABAA α5β3γ2s; format: cell-based
T2 construct: Human GABAA receptor alpha 5 subunit amino acid; Human GABAA receptor beta 3 variant 1 subunit amino acid; Human GABAA receptor gamma 2 variant 1 (short) subunit amino acid; expressed in transfected cells
T2 sequence (P31644 32-462): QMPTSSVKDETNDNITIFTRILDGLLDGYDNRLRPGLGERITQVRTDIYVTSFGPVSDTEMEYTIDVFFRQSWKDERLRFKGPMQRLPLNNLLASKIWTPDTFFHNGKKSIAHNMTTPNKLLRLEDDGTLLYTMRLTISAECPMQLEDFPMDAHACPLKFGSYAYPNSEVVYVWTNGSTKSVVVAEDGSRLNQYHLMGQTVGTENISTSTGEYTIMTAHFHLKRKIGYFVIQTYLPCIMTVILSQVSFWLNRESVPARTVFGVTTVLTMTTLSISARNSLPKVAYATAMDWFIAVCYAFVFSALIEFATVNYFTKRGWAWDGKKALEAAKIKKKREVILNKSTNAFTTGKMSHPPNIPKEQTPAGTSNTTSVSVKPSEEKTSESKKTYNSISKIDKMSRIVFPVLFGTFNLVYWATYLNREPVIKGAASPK
T2 sequence (P28472 26-473): as the sequence (P28472 26-473, stated change not applied) above
T2 sequence (P18507 40-467 isoform P18507-1 limits assumed): as the sequence (P18507 40-467 isoform P18507-1, stated change not applied) above
Description: as §1, §2, §3

[4] = target: T3, GABAA receptor α3β3γ2s (α3) (Homo sapiens, UniProt P18507+P28472+P34903); experiment: Membrane potential assay, CHO cell line expressing GABAA α3β3γ2s; format: cell-based
T3 construct: Human GABAA receptor alpha 3 subunit amino acid; Human GABAA receptor beta 3 variant 1 subunit amino acid; Human GABAA receptor gamma 2 variant 1 (short) subunit amino acid; expressed in transfected cells
T3 sequence (P34903 29-492): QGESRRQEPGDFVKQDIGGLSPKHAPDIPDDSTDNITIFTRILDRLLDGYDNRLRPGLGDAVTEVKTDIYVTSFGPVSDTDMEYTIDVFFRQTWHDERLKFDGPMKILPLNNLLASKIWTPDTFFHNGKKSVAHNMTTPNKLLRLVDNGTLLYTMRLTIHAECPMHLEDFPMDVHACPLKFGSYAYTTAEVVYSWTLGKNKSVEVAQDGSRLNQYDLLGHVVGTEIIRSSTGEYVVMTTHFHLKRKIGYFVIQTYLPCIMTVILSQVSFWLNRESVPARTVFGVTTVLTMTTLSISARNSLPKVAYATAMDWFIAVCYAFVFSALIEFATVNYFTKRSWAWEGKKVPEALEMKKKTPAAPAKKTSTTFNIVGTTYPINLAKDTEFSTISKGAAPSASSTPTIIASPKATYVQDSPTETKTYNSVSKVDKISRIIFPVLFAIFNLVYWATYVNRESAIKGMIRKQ
T3 sequence (P28472 26-473): as the sequence (P28472 26-473, stated change not applied) above
T3 sequence (P18507 40-467 isoform P18507-1 limits assumed): as the sequence (P18507 40-467 isoform P18507-1, stated change not applied) above
Description: as §1, §2, §3

[5] = target: T4, GABAA receptor α1β3γ2s (α1) (Homo sapiens, UniProt P14867+P18507+P28472); experiment: Membrane potential assay, CHO cell line expressing GABAA α1β3γ2s; format: cell-based
T4 construct: Human GABAA receptor alpha 1 subunit amino acid; Human GABAA receptor beta 3 variant 1 subunit amino acid; Human GABAA receptor gamma 2 variant 1 (short) subunit amino acid; expressed in transfected cells
T4 sequence (P14867 28-456): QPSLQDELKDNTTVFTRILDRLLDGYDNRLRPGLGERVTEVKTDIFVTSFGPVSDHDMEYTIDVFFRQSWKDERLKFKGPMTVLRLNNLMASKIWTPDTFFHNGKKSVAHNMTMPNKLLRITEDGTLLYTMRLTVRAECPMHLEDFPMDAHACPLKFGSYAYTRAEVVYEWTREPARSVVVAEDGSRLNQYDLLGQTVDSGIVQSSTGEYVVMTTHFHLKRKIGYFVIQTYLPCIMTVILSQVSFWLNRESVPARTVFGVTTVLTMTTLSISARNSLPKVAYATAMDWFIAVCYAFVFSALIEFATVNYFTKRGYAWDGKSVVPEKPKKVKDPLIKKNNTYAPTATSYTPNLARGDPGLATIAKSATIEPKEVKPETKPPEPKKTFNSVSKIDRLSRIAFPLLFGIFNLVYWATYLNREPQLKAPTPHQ
T4 sequence (P28472 26-473): as the sequence (P28472 26-473, stated change not applied) above
T4 sequence (P18507 40-467 isoform P18507-1 limits assumed): as the sequence (P18507 40-467 isoform P18507-1, stated change not applied) above
Description: as §1, §2, §3

[6] = target: T5, GABAA receptor α2β3γ2s (α2) (Homo sapiens, UniProt P18507+P28472+P47869); experiment: Membrane potential assay, CHO cell line expressing GABAA α2β3γ2s; format: cell-based
T5 construct: Human GABAA receptor alpha 2 subunit amino acid; Human GABAA receptor beta 3 variant 1 subunit amino acid; Human GABAA receptor gamma 2 variant 1 (short) subunit amino acid; expressed in transfected cells
T5 sequence (P47869 29-451 A343T): as the sequence (P47869 29-451 A343T) above
T5 sequence (P28472 26-473, change not shown): as the sequence (P28472 26-473, stated change not applied) above
T5 sequence (P18507 40-467 isoform P18507-1, change not shown): as the sequence (P18507 40-467 isoform P18507-1, stated change not applied) above
Description: as §1, §2, §3

[7] = membrane potential assay, CHO α5β3γ2s cell line, read-out: EC50 Values α5
[8] = membrane potential assay, CHO α3β3γ2s cell line, read-out: EC50 Values α3
[9] = membrane potential assay, CHO α1β3γ2s cell line, read-out: EC50 Values α1

| Molecule | Quench of meYFP signal [1] | EC50 [2] [nM] | EC50 [3, 7] [nM] | EC50 [4, 8] [nM] | EC50 [5, 9] [nM] | EC50 [6] [nM] | EC50 [3] [nM] | EC50 [4] [nM] | EC50 [5] [nM] | EC50 Values α5 (result in words) ([3]; membrane potential assay, CHO α5β3γ2s cell line) |
| --- | --- | --- | --- | --- | --- | --- | --- | --- | --- | --- |
| NCCCC(=O)O [GABA, Gamma-aminobutyric acid] | increasing quench of meYFP signal | – | – | – | – | – | – | – | – | – |
| O=S(=O)(O)C1CCNCC1 [Piperidine-4-sulphonic acid] | – | 20000 | 14200 | 8330 | 13000 | – | – | – | – | – |
| CC(C)(C)c1cc(C=C(C#N)C#N)cc(C(C)(C)C)c1O [Tyrphostin A9] | – | 880 | 54000 | 5000 | 1800 | – | – | – | – | – |
| O=C(O)C1=CCNCC1 [Isoguvacine hydrochloride] | – | 3420 | 1130 | 6780 | 3570 | – | – | – | – | – |
| CC(C)c1cccc(C(C)C)c1O [Propofol] | – | – | – | – | – | 42800 | 2000 | 12900 | 33400 | – |
| Ivermectin | – | 767 | 687 | 798 | 4260 | – | – | – | – | – |
| CN1C(=O)CCS(=O)(=O)C1c1ccc(Cl)cc1 (stereo not shown) [Chlormezanone] | – | – | – | – | – | 5.42 | 14.1 | 7 | 1.74 | – |
| COc1cc(/C=C(\C#N)C(=O)c2ccc(O)c(O)c2)cc(I)c1O [I-OMe Tyrphostin 538] | – | 1500 | – | 2200 | 3500 | – | – | – | – | α5 Not active |
| CC(=O)[C@H]1CC[C@H]2[C@@H]3CC[C@H]4C[C@H](O)CC[C@]4(C)[C@H]3CC[C@]12C [5-alpha-Pregnan-3alpha-ol-20-one] | – | – | – | 80 | 692 | 140 | 33.6 | – | – | – |
| CCOC(=O)c1cnc2c(cnn2CC)c1NN=C(C)C [Etazolate] | – | 790 | 281 | 569 | 2540 | – | – | – | – | – |
| C[C@]12CC[C@@H](O)C[C@@H]1CC[C@@H]1[C@@H]2CC[C@]2(C)C(=O)CC[C@@H]12 [Androsterone] | – | – | – | – | – | 1520 | 337 | 1120 | 1480 | – |
| OCCN(CCO)c1nc(N2CCCCC2)c2nc(N(CCO)CCO)nc(N3CCCCC3)c2n1 [Dipyridamole] | – | 3680 | 1370 | 3690 | – | – | – | – | – | – |
| CCCCNc1c(C(=O)OCC)c(C)nc2c1cnn2CC [Tracazolate] | – | 8900 | 762 | 4300 | 10600 | – | – | – | – | – |
| O=C(Nc1ccc([N+](=O)[O-])cc1Cl)c1cc(Cl)ccc1O [Niclosamide] | – | – | 690 | 550 | – | – | – | – | – | – |
| C[C@]12CC[C@@H](O)C[C@@H]1CC[C@@H]1[C@@H]2CC[C@]2(C)[C@@H](C(=O)CO)CC[C@@H]12 [3-alpha, 21-dihydroxy-5-alpha-pregnan-20-one] | – | 123 | 17.3 | 80.2 | 382 | – | – | – | – | – |
| NCc1cc(=O)[nH]o1 [Muscimol] | – | – | – | – | – | 675 | 80 | 367 | 4000 | – |
